According to ChEMBL document CHEMBL1150412, “1,5-Diphenylpyrrole derivatives as antimycobacterial agents. Probing the influence on antimycobacterial activity of lipophilic substituents at the phenyl rings” (J Med Chem, 2008):
In brackets after ≈: the same amount, converted by molar mass.

Assays:
[1] = tested on: Mycolicibacterium smegmatis; assay: Antimycobacterial activity against Mycobacterium smegmatis CIP 103599; type: functional
[2] = tested on: Mycobacterium avium; assay: Antimycobacterial activity against Mycobacterium avium CIP 103317; type: functional
[3] = tested on: Mycobacterium tuberculosis; assay: Antimycobacterial activity against Mycobacterium tuberculosis H37Rv; type: functional
[4] = Protection index, ratio of MNTD50 for african green monkey Vero cells to MIC for Mycobacterium tuberculosis 103471; type: functional
[5] = tested on: Mycobacterium marinum; assay: Antimycobacterial activity against Mycobacterium marinum CIP 6423; type: functional
[6] = tested on: Mycobacterium tuberculosis; assay: Antimycobacterial activity against Mycobacterium tuberculosis 103471; type: functional
[7] = tested on: Vero; assay: Cytotoxicity against african green monkey Vero cells after 5 days; type: cell-based; settings: chlorocebus sabaeus, 120 h
[8] = tested on: Mycobacterium tuberculosis; assay: Antimycobacterial activity against Mycobacterium tuberculosis H37Rv in […] cells assessed as reduction in number of surviving bacteria at 0.25 ug/mL relative to control; type: functional
[9] = tested on: Mycobacterium tuberculosis; assay: Antimycobacterial activity against Mycobacterium tuberculosis clinical isolates by agar dilution method; type: functional
[10] = tested on: Mycobacterium tuberculosis; assay: Antimycobacterial activity against Mycobacterium tuberculosis H37Rv in […] cells assessed as reduction in number of surviving bacteria at 1 ug/mL relative to control; type: functional
[11] = tested on: Mycobacterium tuberculosis; assay: Antimycobacterial activity against Mycobacterium tuberculosis H37Rv in […] cells assessed as reduction in number of surviving bacteria at 0.5 ug/mL relative to control; type: functional

Structure (SMILES) | MIC [1] [µg/mL] | MIC [2] [µg/mL] | MIC [3] [µg/mL] | Ratio [4] | MIC [5] [µg/mL] | MIC [6] [µg/mL] | MNTD50 [7] [µg/mL] | Activity [8] [%] | MIC [9] [µg/mL] | MIC50 [9] [µg/mL] | MIC90 [9] [µg/mL] | Activity [10] [%] | Activity [11] [%]
Cc1c(CN2CCN(C)CC2)cc(-c2ccc(Cl)cc2)n1-c1ccc(Cl)cc1 | 25 (≈ 60.3 µM) | 0.5 (≈ 1.21 µM) | 2 (≈ 4.83 µM) | 4 | 100 (≈ 241 µM) | 1 (≈ 2.41 µM) | 4 |  |  |  |  |  | 
Cc1ccc(-c2cc(CN3CCSCC3)c(C)n2-c2ccc(F)cc2)cc1 | 16 (≈ 42 µM) | 8 (≈ 21 µM) | 0.125 (≈ 0.328 µM) | 256 | 8 (≈ 21 µM) | 0.25 (≈ 0.657 µM) | 64 |  |  |  |  |  | 
CCCc1ccc(-n2c(-c3ccc(F)cc3)cc(CN3CCSCC3)c2C)cc1 | 4 (≈ 9.79 µM) | > 16 |  | 4 | 16 (≈ 39.2 µM) | 1 (≈ 2.45 µM) | 4 |  |  |  |  |  | 
CCc1ccc(-n2c(-c3ccc(F)cc3)cc(CN3CCSCC3)c2C)cc1 | 2 (≈ 5.07 µM) | > 16 |  | 1 | > 16 | 2 (≈ 5.07 µM) | 2 |  |  |  |  |  | 
Cc1c(CN2CCSCC2)cc(-c2ccc(Cl)cc2)n1-c1ccc(C(C)C)cc1 | > 16 | 16 (≈ 37.6 µM) | 0.25 (≈ 0.588 µM) | 128 | 16 (≈ 37.6 µM) | 0.25 (≈ 0.588 µM) | 32 | 47.37 | 0.25 (≈ 0.588 µM) | 0.25 (≈ 0.588 µM) | 0.5 (≈ 1.18 µM) | 98.74 | 84.21
CCc1ccc(-n2c(-c3ccc(Cl)cc3)cc(CN3CCSCC3)c2C)cc1 | 8 (≈ 19.5 µM) | 16 (≈ 38.9 µM) | 0.5 (≈ 1.22 µM) | 32 | 4 (≈ 9.73 µM) | 0.5 (≈ 1.22 µM) | 16 |  |  |  |  |  | 
CCCc1ccc(-c2cc(CN3CCSCC3)c(C)n2-c2ccc(F)cc2)cc1 | > 16 | > 16 |  | 2 | > 16 | 2 (≈ 4.89 µM) | 4 |  |  |  |  |  | 
Cc1c(CN2CCSCC2)cc(-c2ccc(C(C)C)cc2)n1-c1ccc(F)cc1 | > 16 | 4 (≈ 9.79 µM) | 0.25 (≈ 0.612 µM) | 128 | 8 (≈ 19.6 µM) | 0.25 (≈ 0.612 µM) | 32 |  |  | 0.5 (≈ 1.22 µM) | 0.5 (≈ 1.22 µM) |  | 
Cc1ccc(-c2cc(CN3CCSCC3)c(C)n2-c2ccc(Cl)cc2)cc1 | > 16 | 16 (≈ 40.3 µM) | 0.5 (≈ 1.26 µM) | 128 | > 16 | 0.5 (≈ 1.26 µM) | 64 |  |  |  |  |  | 
CCc1ccc(-c2cc(CN3CCSCC3)c(C)n2-c2ccc(Cl)cc2)cc1 | 8 (≈ 19.5 µM) | 16 (≈ 38.9 µM) | 0.25 (≈ 0.608 µM) | 64 | 8 (≈ 19.5 µM) | 0.25 (≈ 0.608 µM) | 16 |  |  |  |  |  | 
Cc1ccc(-n2c(-c3ccc(Cl)cc3)cc(CN3CCSCC3)c2C)cc1 | 16 (≈ 40.3 µM) | > 16 | 0.5 (≈ 1.26 µM) | 32 | 16 (≈ 40.3 µM) | 0.5 (≈ 1.26 µM) | 16 |  |  |  |  |  | 
CCCc1ccc(-n2c(-c3ccc(Cl)cc3)cc(CN3CCSCC3)c2C)cc1 | > 16 | 16 (≈ 37.6 µM) | 0.25 (≈ 0.588 µM) | 128 | 16 (≈ 37.6 µM) | 0.25 (≈ 0.588 µM) | 32 | 21.05 |  | 0.5 (≈ 1.18 µM) | 1 (≈ 2.35 µM) | 98.79 | 85.79
CCCc1ccc(-c2cc(CN3CCSCC3)c(C)n2-c2ccc(Cl)cc2)cc1 | > 16 | 4 (≈ 9.41 µM) | 0.125 (≈ 0.294 µM) | 64 | 4 (≈ 9.41 µM) | 0.25 (≈ 0.588 µM) | 16 |  |  |  |  |  | 
CCc1ccc(-c2cc(CN3CCSCC3)c(C)n2-c2ccc(F)cc2)cc1 | > 16 | > 16 |  | 16 | > 16 | 1 (≈ 2.53 µM) | 16 |  |  |  |  |  | 
Cc1c(CN2CCSCC2)cc(-c2ccc(F)cc2)n1-c1ccc(C(C)C)cc1 | 8 (≈ 19.6 µM) | > 16 |  | 0.5 | > 16 | 16 (≈ 39.2 µM) | 8 |  |  |  |  |  | 
Cc1c(CN2CCSCC2)cc(-c2ccc(C(C)C)cc2)n1-c1ccc(Cl)cc1 | 8 (≈ 18.8 µM) | 8 (≈ 18.8 µM) | 0.125 (≈ 0.294 µM) | 64 | 4 (≈ 9.41 µM) | 0.125 (≈ 0.294 µM) | 8 |  |  |  |  |  | 
[H]/N=C(/N)N[C@H]1[C@H](O)[C@@H](O)[C@H](O[C@@H]2O[C@@H](C)[C@](O)(C=O)[C@H]2O[C@@H]2O[C@@H](CO)[C@H](O)[C@@H](O)[C@@H]2NC)[C@@H](N/C(N)=N\[H])[C@@H]1O (stereo in doubt) [STREPTOMYCIN] | 8 (≈ 13.8 µM) | 8 (≈ 13.8 µM) | 4 (≈ 6.88 µM) | >128 | 32 (≈ 55 µM) | 0.5 (≈ 0.86 µM) | > 64 |  |  |  |  |  | 
NNC(=O)c1ccncc1 [ISONIAZID] | 64 (≈ 467 µM) | 32 (≈ 233 µM) | 0.25 (≈ 1.82 µM) | 128 | 16 (≈ 117 µM) | 0.125 (≈ 0.911 µM) | 32 |  | 0.125 (≈ 0.911 µM) | 0.125 (≈ 0.911 µM) | 0.25 (≈ 1.82 µM) |  | 
CO[C@H]1/C=C/O[C@@]2(C)Oc3c(C)c(O)c4c(O)c(c(/C=N/N5CCN(C)CC5)c(O)c4c3C2=O)NC(=O)/C(C)=C\C=C\[C@H](C)[C@H](O)[C@@H](C)[C@@H](O)[C@@H](C)[C@H](OC(C)=O)[C@@H]1C [RIFAMPIN] | 32 (≈ 38.9 µM) | 0.25 (≈ 0.304 µM) | 0.25 (≈ 0.304 µM) | 256 | 0.5 (≈ 0.608 µM) | 0.25 (≈ 0.304 µM) | 64 | 95.79 |  |  |  | 99.79 | 98.42
